In patent US20190282497A1 (Bryn Pharma, LLC, priority 2018, published 2019):

Tested on: histamine induced nasal congestion

## NCCc1c[nH]cn1 [Histamine, histamine]
Group 1, 5 and 10 minutes post-histamine exposure
  nasal congestion and flow restriction pressure: progressive increase in nasal congestion and flow restriction pressure
Pilot study, no epinephrine, 60, 80 and 100 minute time points
  histamine induced congestion without epinephrine: remains elevated at significant levels
